Results published in patent US4950602A, “Inhibition of lactate production by pyruvate adducts” (Cornell Research Foundation, Inc., priority 1987, dated 1990).
Entries after “also recorded” stand apart in the source; their conditions may differ.

Experiments:
[1] = molecular target: T1, cytosolic malate dehydrogenase (Rattus norvegicus, UniProt O88989); test: Rat brain cytosolic (soluble) malate dehydrogenase with RAP; assay type: biochemical; conditions: 20 μM RAP
T1 construct: following enzymes in rat brain subcellular fractions: α-ketoglutarate, isocitrate and cytosolic malate dehydrogenases; from tissue; host or cells: rat brain subcellular fractions
T1 sequence (O88989 whole entry): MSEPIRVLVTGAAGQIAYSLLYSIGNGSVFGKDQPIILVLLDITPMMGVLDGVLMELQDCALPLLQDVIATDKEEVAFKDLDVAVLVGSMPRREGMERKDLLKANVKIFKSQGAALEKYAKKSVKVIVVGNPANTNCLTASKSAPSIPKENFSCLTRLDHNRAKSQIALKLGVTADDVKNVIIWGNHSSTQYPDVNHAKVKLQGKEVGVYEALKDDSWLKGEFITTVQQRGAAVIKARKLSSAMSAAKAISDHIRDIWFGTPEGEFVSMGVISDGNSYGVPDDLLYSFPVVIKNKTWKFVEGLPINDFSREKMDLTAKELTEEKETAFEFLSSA
Method: (§1) Each of the enzymes was assayed by procedures in which change of absorbance at 340 nm due to NADH was followed essentially as described by Bergmeyer (1974, Methods of Enzymatic Analysis, 2nd Eng. Ed., Verlag Chemie Weinheim Academic Press, N.Y.) with the following exceptions. Phosphofructokinase was assayed according to the method of Lai et al (1984, J. Neurochem., 42:438-446). NAD^+ -linked isocitrate dehydrogenase was assayed as described by Lai and Clark (1976, Biochem. J., 154:423-432). Pyruvate and α-ketoglutarate dehydrogenase complexes were respectively assayed according to the methods of Lai and Sheu (1985, J. Neurochem., 45:1861-1868) and Lai and Cooper (1986) (J. Neurochem, 47:1376-1386).

[2] = molecular target: T2, glyceraldehyde-3-phosphate dehydrogenase (Rattus norvegicus, UniProt P04797); test: Rat brain glyceraldehyde-3-phosphate dehydrogenase with RAP; assay type: biochemical; conditions: 20 μM RAP
T2 construct: from tissue; host or cells: rat brain
T2 sequence (P04797 whole entry): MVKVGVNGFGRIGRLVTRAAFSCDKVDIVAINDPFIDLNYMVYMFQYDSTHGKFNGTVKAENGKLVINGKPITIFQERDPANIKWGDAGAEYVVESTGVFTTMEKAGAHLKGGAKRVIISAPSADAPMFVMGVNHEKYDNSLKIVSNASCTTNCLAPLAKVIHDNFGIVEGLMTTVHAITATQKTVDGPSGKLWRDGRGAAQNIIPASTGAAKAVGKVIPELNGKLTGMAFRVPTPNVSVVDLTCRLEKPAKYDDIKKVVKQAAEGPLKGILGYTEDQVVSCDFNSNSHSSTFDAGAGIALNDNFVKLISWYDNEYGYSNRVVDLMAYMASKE
Method: as §1

lactate dehydrogenase = test: Determination of inactive E.RAP enzyme complex; assay type: biochemical, rat; conditions: 2 μM initial concentration

Nc1ncnc2c1ncn2[C@@H]1O[C@H](COP(=O)(O)OP(=O)(O)OC[C@H]2O[C@@H](N3C=CC(CC(=O)C(=O)O)C(C=O)=C3)[C@H](O)[C@@H]2O)[C@@H](O)[C@H]1O (stereo partly drawn) [RAP, 3(-4-(reduced 3-pyridinealdehyde-adeninedinucleotide))-pyruvate]
effect on rat brain cytosolic (soluble) malate dehydrogenase [1]: little or no effect; also recorded: did not inhibit
effect on rat brain glyceraldehyde-3-phosphate dehydrogenase [2]: little or no effect
enzyme tied up as the inactive E.RAP complex (lactate dehydrogenase): approximately 90%
